Results from PubChem BioAssay AID1963429 (Molecular Pharmacology Branch, DTP, NCI, 2024).

Test system: 126254-015-R-J1-PDC complex spheroid growth, % test/control
Experiment: Anticancer human tumor 126254-015-R-J1-PDC patient-derived soft tissue sarcoma cell line growth inhibition [Asc]
Details: for IC50: curve of first compound; for viability, T/C: stronger effect = lower value
In short: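 Concentration series start at each agent's clinical Cmax, or at 10 microM when none is established, and drop in half-log steps; agents are applied alone or together to complex spheroids built with HUVEC and hMSC.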
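Note: spheroids exposed to compound for seven days.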
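Throughout, for viability, T/C: 100% = DMSO vehicle control wells.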

For `COc1c(OCCCN2CCOCC2)ccc2c3n(c(=NC(=O)c4cnc(N)nc4)nc12)CCN3` + CNC(C)C(=O)NC1CN(S(=O)(=O)c2cccc(S(=O)(=O)N3CCC4CCC(C(=O)NC(c5ccccc5)c5ccccc5)N4C(=O)C(NC(=O)C(C)NC)C3)c2)CCC2CCC(C(=O)NC(c3ccccc3)c3ccccc3)N2C1=O, the IC50 (second compound 0.01 µM) was 52 nM, the IC50 (second compound 0.0316 µM) was 53.3 nM and the IC50 (second compound 0.1 µM) was 32.3 nM. For the same compound, the IC50 (second compound 0.316 µM) was 19.9 nM, the IC50 (second compound 1 µM) was 15.8 nM and the viability, T/C (second compound 0.01 µM, first compound 0.00316 µM) was 84.8%. It also gave a viability, T/C (second compound 0.01 µM, first compound 0.01 µM) of 82.4%, a viability, T/C (second compound 0.01 µM, first compound 0.0316 µM) of 57.8% and a viability, T/C (second compound 0.01 µM, first compound 0.1 µM) of 37.3%. The viability, T/C (second compound 0.01 µM, first compound 0.316 µM) was 20.1%, the viability, T/C (second compound 0.01 µM, first compound 1 µM) was 12.5% and the viability, T/C (second compound 0.0316 µM, first compound 0.00316 µM) was 74.8%. The viability, T/C (second compound 0.0316 µM, first compound 0.01 µM) was 73.2%, the viability, T/C (second compound 0.0316 µM, first compound 0.0316 µM) was 60.7% and the viability, T/C (second compound 0.0316 µM, first compound 0.1 µM) was 36.6%. For the same compound, the viability, T/C (second compound 0.0316 µM, first compound 0.316 µM) was 19.3%, the viability, T/C (second compound 0.0316 µM, first compound 1 µM) was 11.4% and the viability, T/C (second compound 0.1 µM, first compound 0.00316 µM) was 66.1%. For the same compound, the viability, T/C (second compound 0.1 µM, first compound 0.01 µM) was 63.5%, the viability, T/C (second compound 0.1 µM, first compound 0.0316 µM) was 47.9% and the viability, T/C (second compound 0.1 µM, first compound 0.1 µM) was 36%. The viability, T/C (second compound 0.1 µM, first compound 0.316 µM) was 17.5%, the viability, T/C (second compound 0.1 µM, first compound 1 µM) was 11.2% and the viability, T/C (second compound 0.316 µM, first compound 0.00316 µM) was 60.8%. It also gave a viability, T/C (second compound 0.316 µM, first compound 0.01 µM) of 54.6%, a viability, T/C (second compound 0.316 µM, first compound 0.0316 µM) of 47.8% and a viability, T/C (second compound 0.316 µM, first compound 0.1 µM) of 29.1%. For the same compound, the viability, T/C (second compound 0.316 µM, first compound 0.316 µM) was 18.2%, the viability, T/C (second compound 0.316 µM, first compound 1 µM) was 9.08% and the viability, T/C (second compound 1 µM, first compound 0.00316 µM) was 53.7%. It also gave a viability, T/C (second compound 1 µM, first compound 0.01 µM) of 56.6%, a viability, T/C (second compound 1 µM, first compound 0.0316 µM) of 43.6% and a viability, T/C (second compound 1 µM, first compound 0.1 µM) of 28.3%. For the same compound, the viability, T/C (second compound 1 µM, first compound 0.316 µM) was 15.6% and the viability, T/C (second compound 1 µM, first compound 1 µM) was 9.01%.

In the case of `Cc1nc(N2CCC3(CC2)COC(C)C3N)c(CO)nc1Sc1ccnc(N)c1Cl` (stereo not given) + CCN1C(C(=O)NC23CCC(C(=O)O)(CC2)CC3)C(c2cccc(Cl)c2F)C2(C(=O)Nc3cc(Cl)ccc32)C12CCCCC2, the IC50 (second compound 0.03 µM) is reported as 1430 nM, the IC50 (second compound 0.0949 µM) is reported as 759 nM and the IC50 (second compound 0.3 µM) is reported as 1050 nM. For the same compound, the IC50 (second compound 0.949 µM) was 785 nM, the IC50 (second compound 3 µM) was 891 nM and the viability, T/C (second compound 0.03 µM, first compound 0.00949 µM) was 98.5%. The viability, T/C (second compound 0.03 µM, first compound 0.03 µM) was 87.4%, the viability, T/C (second compound 0.03 µM, first compound 0.0949 µM) was 81.1% and the viability, T/C (second compound 0.03 µM, first compound 0.3 µM) was 64.8%. For the same compound, the viability, T/C (second compound 0.03 µM, first compound 0.949 µM) was 59.5%, the viability, T/C (second compound 0.03 µM, first compound 3 µM) was 38.8% and the viability, T/C (second compound 0.0949 µM, first compound 0.00949 µM) was 90.7%. It also gave a viability, T/C (second compound 0.0949 µM, first compound 0.03 µM) of 95.8%, a viability, T/C (second compound 0.0949 µM, first compound 0.0949 µM) of 86.3% and a viability, T/C (second compound 0.0949 µM, first compound 0.3 µM) of 63.2%. It also gave a viability, T/C (second compound 0.0949 µM, first compound 0.949 µM) of 47.8%, a viability, T/C (second compound 0.0949 µM, first compound 3 µM) of 43% and a viability, T/C (second compound 0.3 µM, first compound 0.00949 µM) of 88.7%. For the same compound, the viability, T/C (second compound 0.3 µM, first compound 0.03 µM) was 93.5%, the viability, T/C (second compound 0.3 µM, first compound 0.0949 µM) was 69.9% and the viability, T/C (second compound 0.3 µM, first compound 0.3 µM) was 60.7%. It also gave a viability, T/C (second compound 0.3 µM, first compound 0.949 µM) of 54.7%, a viability, T/C (second compound 0.3 µM, first compound 3 µM) of 42.5% and a viability, T/C (second compound 0.949 µM, first compound 0.00949 µM) of 91.3%. For the same compound, the viability, T/C (second compound 0.949 µM, first compound 0.03 µM) was 91.2%, the viability, T/C (second compound 0.949 µM, first compound 0.0949 µM) was 76.8% and the viability, T/C (second compound 0.949 µM, first compound 0.3 µM) was 59.1%. The viability, T/C (second compound 0.949 µM, first compound 0.949 µM) was 51.2%, the viability, T/C (second compound 0.949 µM, first compound 3 µM) was 38.4% and the viability, T/C (second compound 3 µM, first compound 0.00949 µM) was 98.2%. It also gave a viability, T/C (second compound 3 µM, first compound 0.03 µM) of 87.8%, a viability, T/C (second compound 3 µM, first compound 0.0949 µM) of 85% and a viability, T/C (second compound 3 µM, first compound 0.3 µM) of 63.8%. For the same compound, the viability, T/C (second compound 3 µM, first compound 0.949 µM) was 49.6% and the viability, T/C (second compound 3 µM, first compound 3 µM) was 39.2%.
